Measurements as given in paper PMC10150366, “Discovery of an In Vivo Chemical Probe for BCL6 Inhibition by Optimization of Tricyclic Quinolinones” (Journal of Medicinal Chemistry, 2023).

Legend:
GABAA [1] = molecular target: T1, GABAA (Homo sapiens, UniProt P14867+P18507+P47870); test: SAFETYscan Ion Channel GABAA Opener; format: cell-based
Description: (§1) Supplement jm3c00155_si_002.xlsx, sheet "SAFETYScan" | column: RC50 (uM); Max Response

MAOA = MAOA (Homo sapiens, UniProt P21397); test: SAFETYscan Enzymatic MAOA Inhibitor; format: biochemical
Description: as §1

CHRM2 = molecular target: T2, CHRM2 (Homo sapiens, UniProt P08172); test: SAFETYscan cAMP CHRM2 Agonist; format: cell-based
T2 sequence (P08172 1-466): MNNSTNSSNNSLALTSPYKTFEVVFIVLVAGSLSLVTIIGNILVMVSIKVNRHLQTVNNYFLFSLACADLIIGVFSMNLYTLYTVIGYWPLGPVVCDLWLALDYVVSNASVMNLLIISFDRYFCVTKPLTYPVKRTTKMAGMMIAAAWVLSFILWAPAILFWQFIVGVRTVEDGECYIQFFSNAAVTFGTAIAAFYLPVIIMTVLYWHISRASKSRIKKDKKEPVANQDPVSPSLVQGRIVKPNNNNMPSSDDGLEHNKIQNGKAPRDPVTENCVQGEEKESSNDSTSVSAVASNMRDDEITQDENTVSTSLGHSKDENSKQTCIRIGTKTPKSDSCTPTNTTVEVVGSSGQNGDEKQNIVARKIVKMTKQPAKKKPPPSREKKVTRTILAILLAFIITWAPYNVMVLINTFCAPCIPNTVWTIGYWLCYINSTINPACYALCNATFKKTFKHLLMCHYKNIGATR
Description: (§2) Supplement jm3c00155_si_002.xlsx, sheet "SAFETYScan" | column: RC50 (uM); Hill; Max Response

GABAA [2] = molecular target: T1, GABAA; test: SAFETYscan Ion Channel GABAA Blocker; format: cell-based
Description: as §1

HTR1A = molecular target: T3, HTR1A (Homo sapiens, UniProt P08908); test: SAFETYscan cAMP HTR1A Antagonist; format: cell-based
T3 sequence (P08908 1-422): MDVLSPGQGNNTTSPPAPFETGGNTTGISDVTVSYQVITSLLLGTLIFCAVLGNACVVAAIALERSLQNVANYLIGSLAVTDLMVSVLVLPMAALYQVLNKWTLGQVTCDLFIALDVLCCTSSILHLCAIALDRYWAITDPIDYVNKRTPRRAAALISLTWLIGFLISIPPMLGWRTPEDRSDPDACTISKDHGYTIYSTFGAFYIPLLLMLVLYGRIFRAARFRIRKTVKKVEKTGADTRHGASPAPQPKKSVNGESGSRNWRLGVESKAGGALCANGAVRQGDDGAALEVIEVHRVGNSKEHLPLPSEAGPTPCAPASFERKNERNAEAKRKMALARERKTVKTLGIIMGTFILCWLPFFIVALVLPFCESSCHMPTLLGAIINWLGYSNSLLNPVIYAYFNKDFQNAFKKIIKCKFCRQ
Description: as §1

INSR = INSR (Homo sapiens, UniProt P06213); test: SAFETYscan Kinases Binding INSR Inhibitor
Description: as §1

ROCK1 = ROCK1 (Homo sapiens, UniProt Q13464); test: SAFETYscan Kinases Binding ROCK1 Inhibitor
Description: as §1

HRH2 = HRH2 (Homo sapiens, UniProt P25021); test: SAFETYscan cAMP HRH2 Antagonist; format: cell-based
Description: as §2

ARID3A mRNA = ARID3A mRNA in Karpas 422 tumour xenografts (quantitative RT-PCR); format: in vivo, mouse; details: 50 mg/kg PO, 12 h post dose, TaqMan PCR
Experimental: frozen in liquid nitrogen, dedicating one half to PK analysis and the other half to pharmacodynamic analysis (PD). All frozen material was permanently stored in a -80°C freezer.
5.3.5 Tumour lysis and Wes method
Tumours were lysed in lysis buffer (50 mM Tris-HCl, pH 7.4, 150 mM NaCl, 1% Triton X-100 (v/v), 1 mM PMSF, 1 mM activated sodium vanandate, 1 mM EDTA, phosphatase inhibitors 2 and 3 (1:50m dilution) and protease cocktail (1:100 dilution)) using reinforced homogenizing tubes containing metal beads using a Precellys 24 with cryolys cooling at 6000 rpm, 2 × 20 s (Stretton Scientific). Lysates were incubated on ice for 15 minutes, spun at 14000 rpm at 4 °C for 10 minutes and supernatants collected and aliquoted.
Samples were stored at -80 °C until use. Protein concentration was determined by diluting 1:10 with lysis buffer and measuring on Direct Detect® spectrometer according to manufacturer’s instructions.
Protein lysates were diluted to 0.0875 mg/ml with 0.1x sample buffer and run on Wes 12-230 kDa kit according to manufacturer’s instructions (ProteinSimple) with multiplexing BCL6 (CST14895 at 1:150 dilution) and GAPDH (CST 2118 at 1:50 dilution). Data was analysed using Compass for SW software. […]
5.3.6 Quantitative RT-PCR […]
(ThermoFisher Scientific). ARID3A expression relative to vehicle-treated tumours was determined using […]

PDE3A = PDE3A (Homo sapiens, UniProt Q14432); test: SAFETYscan Enzymatic PDE3A Inhibitor; format: biochemical
Description: as §1

COX2 = COX2 (Homo sapiens, UniProt P35354); test: SAFETYscan Enzymatic COX2 Inhibitor; format: biochemical
Description: as §1

KvLQT1/minK = KvLQT1/minK (Homo sapiens, UniProt P51787); test: SAFETYscan Ion Channel KvLQT1/minK Opener; format: cell-based
Description: as §1

T1 sequence (P14867 28-456): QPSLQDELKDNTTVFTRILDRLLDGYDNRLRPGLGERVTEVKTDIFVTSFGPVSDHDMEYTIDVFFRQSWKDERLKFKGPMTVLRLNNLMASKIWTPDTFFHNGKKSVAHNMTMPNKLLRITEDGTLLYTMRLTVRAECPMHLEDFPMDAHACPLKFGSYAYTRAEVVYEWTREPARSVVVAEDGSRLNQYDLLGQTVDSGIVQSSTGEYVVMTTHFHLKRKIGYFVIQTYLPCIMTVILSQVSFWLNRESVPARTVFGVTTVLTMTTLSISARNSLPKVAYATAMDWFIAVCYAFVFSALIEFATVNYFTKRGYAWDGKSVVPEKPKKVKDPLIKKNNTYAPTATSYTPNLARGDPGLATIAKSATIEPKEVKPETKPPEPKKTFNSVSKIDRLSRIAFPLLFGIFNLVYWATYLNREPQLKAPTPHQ
T1 sequence (P47870 26-512): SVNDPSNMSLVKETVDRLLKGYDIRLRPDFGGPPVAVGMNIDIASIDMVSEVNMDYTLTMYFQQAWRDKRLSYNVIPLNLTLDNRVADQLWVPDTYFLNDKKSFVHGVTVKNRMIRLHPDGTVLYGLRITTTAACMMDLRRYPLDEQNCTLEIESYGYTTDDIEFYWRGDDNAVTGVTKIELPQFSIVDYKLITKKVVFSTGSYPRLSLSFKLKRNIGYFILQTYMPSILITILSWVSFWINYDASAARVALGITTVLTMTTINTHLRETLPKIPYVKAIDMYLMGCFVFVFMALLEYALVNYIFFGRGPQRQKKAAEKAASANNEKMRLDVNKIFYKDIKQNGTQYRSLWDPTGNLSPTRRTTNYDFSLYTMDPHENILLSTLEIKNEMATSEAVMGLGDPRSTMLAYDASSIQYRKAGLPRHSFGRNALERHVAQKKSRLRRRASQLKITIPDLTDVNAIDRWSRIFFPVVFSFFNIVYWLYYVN
T1 sequence (P18507 40-475): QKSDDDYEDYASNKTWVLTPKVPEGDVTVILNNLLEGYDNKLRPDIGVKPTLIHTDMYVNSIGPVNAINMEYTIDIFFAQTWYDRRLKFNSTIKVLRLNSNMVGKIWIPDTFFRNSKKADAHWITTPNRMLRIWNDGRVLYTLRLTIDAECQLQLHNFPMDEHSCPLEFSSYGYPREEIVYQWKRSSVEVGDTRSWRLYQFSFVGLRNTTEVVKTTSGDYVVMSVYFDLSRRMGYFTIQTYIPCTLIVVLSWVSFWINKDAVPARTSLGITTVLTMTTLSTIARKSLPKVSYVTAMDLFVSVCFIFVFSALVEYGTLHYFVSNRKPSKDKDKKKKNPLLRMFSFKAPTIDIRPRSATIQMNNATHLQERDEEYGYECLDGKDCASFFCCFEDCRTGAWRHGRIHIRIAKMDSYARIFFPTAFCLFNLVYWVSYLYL
HRH2, sequence (P25021 whole entry): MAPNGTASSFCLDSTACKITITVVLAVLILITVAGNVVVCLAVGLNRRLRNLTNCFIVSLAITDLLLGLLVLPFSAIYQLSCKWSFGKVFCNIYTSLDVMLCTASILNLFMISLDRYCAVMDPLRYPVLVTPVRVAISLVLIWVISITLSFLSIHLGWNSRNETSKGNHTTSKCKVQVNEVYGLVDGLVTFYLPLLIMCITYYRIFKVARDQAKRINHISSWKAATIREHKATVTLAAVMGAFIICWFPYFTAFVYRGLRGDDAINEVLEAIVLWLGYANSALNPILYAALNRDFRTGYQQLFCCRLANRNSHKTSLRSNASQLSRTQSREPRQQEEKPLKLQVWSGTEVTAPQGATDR
COX2, sequence (P35354 18-604): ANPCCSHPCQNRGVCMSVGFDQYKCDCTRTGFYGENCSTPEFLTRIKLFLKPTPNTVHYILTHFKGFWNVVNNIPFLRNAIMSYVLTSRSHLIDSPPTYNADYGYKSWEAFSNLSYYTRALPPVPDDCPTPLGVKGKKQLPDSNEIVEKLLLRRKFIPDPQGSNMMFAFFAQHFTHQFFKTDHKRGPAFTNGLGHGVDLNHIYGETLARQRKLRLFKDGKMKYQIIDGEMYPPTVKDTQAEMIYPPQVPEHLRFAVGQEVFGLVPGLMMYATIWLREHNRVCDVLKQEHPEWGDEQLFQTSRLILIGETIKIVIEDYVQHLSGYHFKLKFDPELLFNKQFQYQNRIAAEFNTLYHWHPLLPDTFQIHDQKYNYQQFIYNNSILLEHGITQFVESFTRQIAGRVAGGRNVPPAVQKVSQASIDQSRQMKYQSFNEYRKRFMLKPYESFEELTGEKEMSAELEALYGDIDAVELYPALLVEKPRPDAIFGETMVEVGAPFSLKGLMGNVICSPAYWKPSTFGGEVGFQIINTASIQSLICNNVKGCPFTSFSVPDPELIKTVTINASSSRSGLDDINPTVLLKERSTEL
INSR, sequence (P06213 28-1382): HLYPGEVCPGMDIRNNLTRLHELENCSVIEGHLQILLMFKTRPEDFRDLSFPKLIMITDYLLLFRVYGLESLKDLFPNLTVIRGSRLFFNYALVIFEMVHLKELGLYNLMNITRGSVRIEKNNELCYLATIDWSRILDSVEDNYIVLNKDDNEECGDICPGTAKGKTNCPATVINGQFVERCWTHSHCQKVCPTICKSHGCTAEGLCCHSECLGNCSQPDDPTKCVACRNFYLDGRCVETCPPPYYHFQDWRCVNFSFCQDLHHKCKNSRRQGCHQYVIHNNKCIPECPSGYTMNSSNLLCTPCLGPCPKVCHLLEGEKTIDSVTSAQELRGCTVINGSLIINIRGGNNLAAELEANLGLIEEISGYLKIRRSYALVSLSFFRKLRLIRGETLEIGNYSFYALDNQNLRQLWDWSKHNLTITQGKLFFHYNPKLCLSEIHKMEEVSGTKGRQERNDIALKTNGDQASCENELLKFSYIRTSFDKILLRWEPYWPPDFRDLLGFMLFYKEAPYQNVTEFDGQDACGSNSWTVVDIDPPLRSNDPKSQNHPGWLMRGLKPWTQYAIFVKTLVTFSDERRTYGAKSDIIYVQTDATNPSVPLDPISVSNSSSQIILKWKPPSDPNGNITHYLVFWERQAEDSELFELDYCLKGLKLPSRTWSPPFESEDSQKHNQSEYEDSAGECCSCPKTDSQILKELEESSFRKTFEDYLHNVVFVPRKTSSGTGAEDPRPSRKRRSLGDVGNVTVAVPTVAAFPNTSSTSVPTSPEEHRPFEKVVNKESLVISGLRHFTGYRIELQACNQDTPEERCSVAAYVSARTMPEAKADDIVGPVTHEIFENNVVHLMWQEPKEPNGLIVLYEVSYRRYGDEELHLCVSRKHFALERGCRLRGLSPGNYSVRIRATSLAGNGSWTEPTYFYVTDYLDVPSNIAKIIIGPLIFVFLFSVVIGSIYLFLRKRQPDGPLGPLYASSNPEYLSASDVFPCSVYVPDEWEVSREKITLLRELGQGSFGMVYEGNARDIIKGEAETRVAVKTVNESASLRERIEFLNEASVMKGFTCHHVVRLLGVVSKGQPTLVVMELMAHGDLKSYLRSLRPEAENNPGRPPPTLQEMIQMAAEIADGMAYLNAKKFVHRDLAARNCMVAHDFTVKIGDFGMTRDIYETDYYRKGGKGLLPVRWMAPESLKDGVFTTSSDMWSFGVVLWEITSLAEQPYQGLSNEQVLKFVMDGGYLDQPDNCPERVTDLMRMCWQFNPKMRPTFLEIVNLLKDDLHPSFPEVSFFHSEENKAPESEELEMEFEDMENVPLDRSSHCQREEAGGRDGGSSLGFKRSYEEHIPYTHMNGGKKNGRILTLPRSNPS
ROCK1, sequence (Q13464 whole entry): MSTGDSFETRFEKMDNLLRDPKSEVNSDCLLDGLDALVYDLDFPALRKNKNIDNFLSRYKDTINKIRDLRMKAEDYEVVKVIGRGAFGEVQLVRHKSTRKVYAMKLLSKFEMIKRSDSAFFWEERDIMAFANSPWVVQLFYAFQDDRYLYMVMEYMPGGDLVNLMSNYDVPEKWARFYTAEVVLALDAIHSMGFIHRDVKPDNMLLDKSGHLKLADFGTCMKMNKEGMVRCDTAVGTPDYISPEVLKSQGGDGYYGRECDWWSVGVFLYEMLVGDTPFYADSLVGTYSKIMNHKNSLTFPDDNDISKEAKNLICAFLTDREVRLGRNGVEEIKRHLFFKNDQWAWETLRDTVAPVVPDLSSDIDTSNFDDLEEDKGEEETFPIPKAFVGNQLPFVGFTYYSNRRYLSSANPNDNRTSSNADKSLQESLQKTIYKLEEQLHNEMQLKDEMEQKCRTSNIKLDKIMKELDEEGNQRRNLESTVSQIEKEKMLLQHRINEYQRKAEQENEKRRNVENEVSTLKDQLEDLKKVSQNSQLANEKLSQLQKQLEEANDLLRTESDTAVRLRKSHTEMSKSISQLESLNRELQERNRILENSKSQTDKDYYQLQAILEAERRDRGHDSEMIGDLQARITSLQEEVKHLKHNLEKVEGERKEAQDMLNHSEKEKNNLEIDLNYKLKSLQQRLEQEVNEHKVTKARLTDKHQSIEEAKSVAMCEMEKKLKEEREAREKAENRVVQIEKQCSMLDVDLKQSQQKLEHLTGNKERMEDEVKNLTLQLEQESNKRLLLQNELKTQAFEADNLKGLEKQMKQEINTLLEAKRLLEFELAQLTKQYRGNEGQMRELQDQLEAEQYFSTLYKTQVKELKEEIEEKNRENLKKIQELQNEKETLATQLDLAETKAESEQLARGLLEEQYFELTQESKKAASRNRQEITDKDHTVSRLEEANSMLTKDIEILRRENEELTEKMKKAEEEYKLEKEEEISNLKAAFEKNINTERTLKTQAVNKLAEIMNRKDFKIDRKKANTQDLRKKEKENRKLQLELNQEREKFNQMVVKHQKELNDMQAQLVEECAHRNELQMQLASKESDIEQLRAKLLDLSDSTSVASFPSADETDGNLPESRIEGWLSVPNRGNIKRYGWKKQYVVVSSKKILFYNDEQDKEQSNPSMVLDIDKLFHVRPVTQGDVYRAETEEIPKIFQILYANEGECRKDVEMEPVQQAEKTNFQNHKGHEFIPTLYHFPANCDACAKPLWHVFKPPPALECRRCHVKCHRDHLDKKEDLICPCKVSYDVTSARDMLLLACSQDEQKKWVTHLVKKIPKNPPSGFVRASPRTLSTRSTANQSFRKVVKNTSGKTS

## Cn1c(=O)c2c(c3cc(Nc4ccnc(F)c4Cl)ccc31)N[C@@H](C1CC1)C(F)(F)CO2 [compound 17, (S)-10-((3-chloro-2-fluoropyridin-4-yl)amino)-2-cyclopropyl-3,3-difluoro-7-methyl-1,2,3,4-tetrahydro-[1,4]oxazepino[2,3-c]quinolin-6(7H)-one]
GABAA [1]
  EC50: > 10 µM
GABAA [1]; GABAA, Ion Channel, Opener, read-out: Max Response
  Emax: 1.24%
MAOA; read-out: Max Response
  Emax: 0%
MAOA; read-out: RC50 (IC50)
  IC50: > 10 µM
CHRM2
  EC50: 2.22 µM
CHRM2; CHRM2, cAMP, Agonist
  Hill: 1.63
CHRM2; CHRM2, cAMP, Agonist, read-out: Max Response
  Emax: 92.6%
GABAA [2]
  IC50: > 10 µM
GABAA [2]; GABAA, Ion Channel, Blocker, read-out: Max Response
  Emax: 0%
HTR1A
  IC50: > 10 µM
HTR1A; HTR1A, cAMP, Antagonist, read-out: Max Response
  Emax: 0%
INSR; read-out: Max Response
  Emax: 0%
INSR; read-out: RC50 (IC50)
  IC50: > 10 µM
ROCK1; read-out: Max Response
  Emax: 0%
ROCK1; read-out: RC50 (IC50)
  IC50: > 10 µM
HRH2
  Hill: 1.03
HRH2; read-out: Max Response
  Emax: 65.2%
HRH2; read-out: RC50 (IC50)
  IC50: 4.76 µM
ARID3A mRNA
  ARID3A mRNA expression in tumor xenografts: significant increase in ARID3A mRNA expression
PDE3A; read-out: Max Response
  Emax: 2.67%
PDE3A; read-out: RC50 (IC50)
  IC50: > 10 µM
COX2; read-out: Max Response
  Emax: 0%
COX2; read-out: RC50 (IC50)
  IC50: > 10 µM
KvLQT1/minK; read-out: Max Response
  Emax: 1.07%
KvLQT1/minK; read-out: RC50 (EC50)
  EC50: > 10 µM
